Test results: patent US5959123A, “3,4-Disubstituted azetidin-2-one derivatives useful as cysteine proteinase regulators” (Synphar Laboratories, Inc., priority 1997, dated 1999)
pIC50: −log10 of the molar value.

Legend:
cathepsin L = cathepsin L (Rattus norvegicus, UniProt P07154); test: In vitro assay for cathepsin L inhibition; type: biochemical; settings: r rat cathepsin L; pH 5.0; 10 min incubation at room temperature; substrate N-CBZ-Phe-Arg-AMC (1 mM, 20 μl)
Procedure: To a 170 μl of enzyme-buffer mixture (enzyme: r rat cathepsin L, diluted to give approximate 15 F units/min, buffer: 58.8 mM sodium citrate, 1.18 mM EDTA, 235 mM sodium chloride, 5 mM DTT, pH 5.0) a 10 μL of inhibitor (dissolved in DMSO) was added. After 10 min of incubation at room temperature, a 20 μl of 1 mM substrate (N-CBZ-Phe-Arg-AMC, dissolved in DMSO) was added to initiate reaction. Reading is followed up for 10 min at the fluoroscan reader (excitation at 380 nm emission at 460 nm).
(§1) A plot of percentage of inhibition vs inhibitor concentration is obtained, and IC50 is determined using a linear regression calculation (concentration of inhibitor which will give 50% inhibition).

cathepsin B = cathepsin B (Rattus norvegicus, UniProt P00787); test: In vitro assay for cathepsin B inhibition; type: biochemical; settings: r rat cathepsin B; pH 5.1; 10 min incubation at room temperature; substrate N-CBZ-Phe-Arg-AMC (5 mM, 20 μl)
Procedure: The compounds of formula I were tested for inhibition of cathepsin B using the known method (A. J. Barret et al., Biochem. J. 1982, 201, 189-198). To a 170 μl of enzyme-buffer mixture (enzyme: r rat cathepsin B, diluted to give approximate 10 F units/min, buffer: 56 mM sodium acetate, 1.124 mM EDTA, 10 mM DTT, pH 5.1) a 10 μL of inhibitor (dissolved in DMSO) was added. After 10 min of incubation at room temperature, a 20 μl of 5 mM substrate (N-CBZ-Phe-Arg-AMC, dissolved in DMSO) was added to initiate reaction. Reading is followed up for 10 min at the fluoroscan reader (excitation at 380 nm emission at 460 nm).
as §1

cathepsin L, sequence (P07154 114-334): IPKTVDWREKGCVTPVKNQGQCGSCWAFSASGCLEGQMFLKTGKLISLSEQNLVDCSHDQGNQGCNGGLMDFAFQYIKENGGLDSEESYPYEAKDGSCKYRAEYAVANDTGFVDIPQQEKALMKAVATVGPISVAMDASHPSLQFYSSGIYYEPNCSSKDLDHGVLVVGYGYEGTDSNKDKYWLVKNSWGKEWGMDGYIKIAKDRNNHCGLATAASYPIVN
cathepsin B, sequence (P00787 80-333 limits assumed): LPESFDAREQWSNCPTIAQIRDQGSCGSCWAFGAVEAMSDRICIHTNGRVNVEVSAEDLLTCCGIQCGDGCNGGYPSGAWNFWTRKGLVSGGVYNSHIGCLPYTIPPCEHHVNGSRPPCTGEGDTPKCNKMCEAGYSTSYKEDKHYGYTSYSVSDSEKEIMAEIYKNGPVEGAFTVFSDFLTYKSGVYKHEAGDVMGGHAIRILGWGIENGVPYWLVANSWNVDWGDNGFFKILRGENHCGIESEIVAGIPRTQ

Row | pIC50 (cathepsin L) | pIC50 (cathepsin B) | SMILES
1 | 6.41 | 5.71 | O=C(CCc1ccccc1)N[C@@H](Cc1ccc2ccccc2c1)C(=O)N[C@@H]1C(=O)NC1OC1CCCCC1 (stereo partly drawn) [Example 19, (3S,4SR)-3{N-(3-phenylpropionoyl)-β-(2-naphthyl)-L-alanyl}-amino-4-cyclohexyloxy-azetidin-2-one]
2 | 8.21 | 5.72 | O=C(CCc1ccccc1)NC(Cc1ccc2ccccc2c1)C(=O)NC1C(=O)NC1Sc1ccccc1 [Example 15, (3S,4SR)-3-{N-(3-phenylpropionoyl)-β-(2-naphthyl)-L-alanyl}-amino-4-phenylthio-azetidin-2-one]
3 | 8.52 | 6.42 | Cc1cccc(O[C@@H]2NC(=O)[C@H]2NC(=O)[C@H](Cc2ccc3ccccc3c2)NC(=O)OCc2ccccc2)c1 [Example 12A, (3S,4S)-3{N-benzyloxycarbonyl-β-(2-naphthyl)-L-alanyl}-amino-4-(3-methylphenoxy)-azetidin-2-one]
4 | 5.66 | 4.96 | CC(C)(C)OC[C@H](NC(=O)OCc1ccccc1)C(=O)N[C@@H]1C(=O)N[C@@H]1Oc1ccccc1 [Example 25, (3S,4R)-3-(2S-2-benzyloxycarbonylamino-2-t-butyloxymethyl-acetamido)-4-phenoxy-azetidin-2-one]
5 | 8.07 | 5.80 | O=C(CCc1ccccc1)NC(Cc1ccc2ccccc2c1)C(=O)NC1C(=O)NC1S(=O)(=O)c1ccccc1 [Example 16, (3S,4SR)-3-{N-(3-phenylpropionoyl)-β-(2-naphthyl)-L-alanyl}-amino-4-phenylsulfonyl-azetidin-2-one]
6 | 4.94 | 4.35 | CC(C)(C)C[C@H](NC(=O)CCc1ccccc1)C(=O)N[C@@H]1C(=O)N[C@H]1Oc1ccccc1 [Example 28, (3S, 4S)-3-[2S-2-(3-phenylpropionoyl)amino-2-t-butylmethyl-acetamido]-4-phenoxy-azetidin-2-one]
7 | 7.89 | 5.08 | N[C@@H](Cc1ccc(OC2NC(=O)[C@H]2NC(=O)[C@H](Cc2ccc3ccccc3c2)NC(=O)NCc2ccccc2)cc1)C(=O)O (stereo partly drawn) [Example 22, (3S,4SR)-3-{N-(benzylaminocarbonyl)-β-(2-naphthyl)-L-alanyl}-amino-4-{4-(2S-2-amino-2-carboxy-ethyl)-phenoxy}-azetidin-2-one]

Row | SMILES | pIC50 (cathepsin L) | pIC50 (cathepsin B)
8 | CC(=O)O[C@@H]1NC(=O)[C@H]1NC(=O)[C@H](NC(=O)OCc1ccccc1)c1ccccc1 [Example 2, (3S,4S)-3-(N-benzyloxycarbonyl-D-phenylglycyl)-amino-4-acetoxy-azetidin-2-one] | < 4.30 | < 4.30
9 | CC(=O)O[C@@H]1NC(=O)[C@H]1NC(=O)C(Cc1cccs1)NC(=O)OCc1ccccc1 (mixture of isomers) [Example 7, (3S,4S)-3-(N-benzyloxycarbonyl-β-(2-thienyl)-DL-alanyl)-amino-4-acetoxy-azetidin-2-one] | 5.63 | 4.54
10 | CC(=O)O[C@@H]1NC(=O)[C@H]1NC(=O)[C@H](Cc1cccnc1)NC(=O)OCc1ccccc1 [Example 5, (3S,4S)-3-{N-benzyloxycarbonyl-β-(3-pyridyl)-L-alanyl}-amino-4-acetoxy-azetidin-2-one] | 5.08 | < 4.30
11 | CC(=O)O[C@@H]1NC(=O)[C@H]1NC(=O)[C@H](CCCNC(N)=O)NC(=O)CCc1ccccc1 [Example 23, (3S,4S)-3-{N-(3-phenylpropionyl)-L-citrullinyl}-amino-4-acetoxy-azetidin-2-one] | 4.94 | 4.96
